Test results taken from patent US11066414B2, “Cot modulators and methods of use thereof” (Gilead Sciences, Inc., priority 2015, dated 2021).
Where two headings read alike, the source gives them in different places.

Legend:
TNFα = assay: Cot Monocyte TNFα Cell Based Assay
Human Cot = Human Cot (Homo sapiens (Human), UniProt P41279); assay: High Throughput Cot Biochemical Assay; conditions: Cot HTRF (TR-FRET) biochemical assay
[1] = Homo sapiens, Monocyte, read-out: EC50 TNF, LPS-stimulated human monocytes, TNFα
[2] = read-out: EC50 TNF, LPS-stimulated human monocytes, TNFα

Sequence of Human Cot (P41279 30-397): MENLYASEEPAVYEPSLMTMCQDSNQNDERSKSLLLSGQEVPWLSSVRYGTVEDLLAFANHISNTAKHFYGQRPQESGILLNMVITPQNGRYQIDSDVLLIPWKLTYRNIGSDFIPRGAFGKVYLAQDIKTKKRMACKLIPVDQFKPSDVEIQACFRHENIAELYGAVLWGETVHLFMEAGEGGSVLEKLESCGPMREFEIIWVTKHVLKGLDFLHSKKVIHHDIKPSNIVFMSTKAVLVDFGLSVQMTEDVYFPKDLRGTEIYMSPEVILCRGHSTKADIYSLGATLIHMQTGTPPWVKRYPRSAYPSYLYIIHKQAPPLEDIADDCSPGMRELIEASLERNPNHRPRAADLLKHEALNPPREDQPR

Row | EC50 (TNFα; [1]) [nM] | IC50 (Human Cot; IC50 HTRF) [nM] | IC50 (Human Cot; read-out: IC50 HTRF) [nM] | EC50 (TNFα; [2]) [nM] | SMILES
1 | 9490 | 41 | – | – | Cc1ncsc1[C@H](Nc1cc(Cl)c2ncc(C#N)c(N[C@H](C)c3ccccc3)c2c1)c1c[nH]nn1 [Example 243, 8-chloro-6-(((R)-(4-methylthiazol-5-yl)(1H-1,2,3-triazol-4-yl)methyl)amino)-4-(((R)-1-phenylethyl)amino)quinoline-3-carbonitrile]
2 | 328 | 4 | – | – | CC(C)n1cc([C@@H](Nc2cc(Cl)c3ncc(C#N)c(Nc4ccc(F)c(Cl)c4)c3c2)C2=CCOCC2)nn1 [Example 244, (S)-8-chloro-4-((3-chloro-4-fluorophenyl)amino)-6-(((3,6-dihydro-2H-pyran-4-yl)(1-isopropyl-1H-1,2,3-triazol-4-yl)methyl)amino)quinoline-3-carbonitrile]
3 | 125 | 2 | – | – | Cc1ncccc1[C@H](Nc1cc(Cl)c2ncc(C#N)c(Nc3cccc(Cl)c3F)c2c1)c1cn(C(C)C)nn1 [Example 245, (S)-8-chloro-4-((3-chloro-2-fluorophenyl)amino)-6-(((1-isopropyl-1H-1,2,3-triazol-4-yl)(2-methylpyridin-3-yl)methyl)amino)quinoline-3-carbonitrile]
4 | 652 | 6 | – | – | N#Cc1cnc2c(Cl)cc(N[C@H](c3c[nH]nn3)c3csc4c3CCN(C3COC3)C4)cc2c1Nc1cccc(Cl)c1F [Example 246, (S)-8-chloro-4-((3-chloro-2-fluorophenyl)amino)-6-(((6-(oxetan-3-yl)-4,5,6,7-tetrahydrothieno[2,3-c]pyridin-3-yl)(1H-1,2,3-triazol-4-yl)methyl)amino)quinoline-3-carbonitrile]
5 | 102 | – | 2 | – | Cc1ncccc1[C@H](Nc1cc(Cl)c2ncc(C#N)c(Nc3cccc(Cl)c3F)c2c1)c1cn(C2CCN(C(C)(C)C)CC2)nn1 [Example 247, (S)-6-(((1-(1-(tert-butyl)piperidin-4-yl)-1H-1,2,3-triazol-4-yl)(2-methylpyridin-3-yl)methyl)amino)-8-chloro-4-((3-chloro-2-fluorophenyl)amino)quinoline-3-carbonitrile]
6 | 398 | 4 | – | – | Cc1ncccc1[C@H](Nc1cc(Cl)c2ncc(C#N)c(Nc3cccc(Cl)c3F)c2c1)c1c[nH]nn1 [Example 248, (S)-8-chloro-4-((3-chloro-2-fluorophenyl)amino)-6-(((2-methylpyridin-3-yl)(1H-1,2,3-triazol-4-yl)methyl)amino)-quinoline-3-carbonitrile]
7 | 127 | 5 | – | – | Cc1cncc([C@H](Nc2cc(Cl)c3ncc(C#N)c(Nc4ccc(F)c(Cl)c4)c3c2)c2cn(C3CCN(C(C)(C)C)CC3)nn2)c1 [Example 250, (S)-6-(((1-(1-(tert-butyl)piperidin-4-yl)-1H-1,2,3-triazol-4-yl)(5-methylpyridin-3-yl)methyl)amino)-8-chloro-4-((3-chloro-4-fluorophenyl)amino)quinoline-3-carbonitrile]
8 | 347 | 5 | – | – | Cc1ncsc1[C@H](Nc1cc(Cl)c2ncc(C#N)c(Nc3cccc(Cl)c3F)c2c1)c1c[nH]nn1 [Example 251, (R)-8-chloro-4-((3-chloro-2-fluorophenyl)amino)-6-(((4-methylthiazol-5-yl)(1H-1,2,3-triazol-4-yl)methyl)amino)quinoline-3-carbonitrile]
9 | 119 | 6 | – | – | Cc1ncsc1[C@H](Nc1cc(Cl)c2ncc(C#N)c(Nc3cccc(Cl)c3F)c2c1)c1cn(C(C)C)nn1 [Example 252, (R)-8-chloro-4-((3-chloro-2-fluorophenyl)amino)-6-(((1-isopropyl-1H-1,2,3-triazol-4-yl)(4-methylthiazol-5-yl)methyl)-amino)quinoline-3-carbonitrile]
10 | 66 | 4 | – | – | Cc1ncsc1[C@H](Nc1cc(Cl)c2ncc(C#N)c(Nc3cccc(Cl)c3F)c2c1)c1cn(C2CCN(C(C)(C)C)CC2)nn1 [Example 253, (R)-6-(((1-(1-(tert-butyl)piperidin-4-yl)-1H-1,2,3-triazol-4-yl)(4-methylthiazol-5-yl)methyl)amino)-8-chloro-4-((3-chloro-2-fluorophenyl)amino)quinoline-3-carbonitrile]
11 | 230 | 3 | – | – | CC[C@@H](Nc1c(C#N)cnc2c(Cl)cc(N[C@@H](c3cccnc3)c3c[nH]nn3)cc12)c1ccccc1 [Example 254, 8-chloro-4-(((R)-1-phenylpropyl)amino)-6-(((S)-pyridin-3-yl(1H-1,2,3-triazol-4-yl)methyl)amino)quinoline-3-carbonitrile]
12 | 766 | 10 | – | – | C[C@@H](Nc1c(C#N)cnc2c(Cl)cc(N[C@@H](c3cccnc3)c3c[nH]nn3)cc12)c1ccccc1 [Example 255, 8-chloro-4-(((R)-1-phenylethyl)amino)-6-(((S)-pyridin-3-yl(1H-1,2,3-triazol-4-yl)methyl)amino)quinoline-3-carbonitrile]
13 | 341 | 16 | – | – | N#Cc1cnc2c(Cl)cc(N[C@@H](c3cccnc3)c3c[nH]nn3)cc2c1Nc1ccc(Cl)c(Cl)c1F [Example 256, (S)-8-chloro-4-((3,4-dichloro-2-fluorophenyl)amino)-6-((pyridin-3-yl(1H-1,2,3-triazol-4-yl)methyl)-amino)quinoline-3-carbonitrile]
14 | 212 | 6 | – | – | N#Cc1cnc2c(Cl)cc(N[C@@H](c3cccnc3)c3c[nH]nn3)cc2c1Nc1cccc(Cl)c1F [Example 257, (S)-8-chloro-4-((3-chloro-2-fluorophenyl)amino)-6-((pyridin-3-yl(1H-1,2,3-triazol-4-yl)methyl)-amino)quinoline-3-carbonitrile]
15 | – | – | 2 | 33 | CC[C@@H](Nc1c(C#N)cnc2c(Cl)cc(N[C@@H](c3cccnc3)c3cn(C4CCN(C(C)(C)C)CC4)nn3)cc12)c1ccccc1 [Example 258]
16 | 158 | 6 | – | – | C[C@@H](Nc1c(C#N)cnc2c(Cl)cc(N[C@@H](c3cccnc3)c3cn(C4CCN(C(C)(C)C)CC4)nn3)cc12)c1ccccc1 [Example 259, 6-(((S)-(1-(1-(tert-butyl)piperidin-4-yl)-1H-1,2,3-triazol-4-yl)(pyridin-3-yl)methyl)amino)-8-chloro-4-(((R)-1-phenylethyl)amino)quinoline-3-carbonitrile]
17 | 126 | 6 | – | – | CC(C)(C)N1CCC(n2cc([C@@H](Nc3cc(Cl)c4ncc(C#N)c(Nc5ccc(Cl)c(Cl)c5F)c4c3)c3cccnc3)nn2)CC1 [Example 260, (S)-6-(((1-(1-(tert-butyl)piperidin-4-yl)-1H-1,2,3-triazol-4-yl)(pyridin-3-yl)methyl)amino)-8-chloro-4-((3,4-dichloro-2-fluorophenyl)amino)-quinoline-3-carbonitrile]
18 | 130 | 11 | – | – | Cc1nc([C@H](Nc2cc(Cl)c3ncc(C#N)c(Nc4ccc(F)c(Cl)c4)c3c2)c2cn(C3CCN(C(C)(C)C)CC3)nn2)c(C)o1 [Example 262, (S)-6-(((1-(1-(tert-butyl)piperidin-4-yl)-1H-1,2,3-triazol-4-yl)(2,5-dimethyloxazol-4-yl)methyl)amino)-8-chloro-4-((3-chloro-4-fluorophenyl)amino)quinoline-3-carbonitrile]
19 | 70 | 2 | – | – | CC(C)(C)N1CCC(n2cc([C@@H](Nc3cc(Cl)c4ncc(C#N)c(Nc5ccc(F)c(Cl)c5)c4c3)C3=CCOCC3)nn2)CC1 [Example 264, (S)-6-(((1-(1-(tert-butyl)piperidin-4-yl)-1H-1,2,3-triazol-4-yl)(3,6-dihydro-2H-pyran-4-yl)methyl)amino)-8-chloro-4-((3-chloro-4-fluorophenyl)-amino)quinoline-3-carbonitrile]
20 | 5120 | 30 | – | – | Cn1cnc([C@H](Nc2cc(Cl)c3ncc(C#N)c(Nc4ccc(F)c(Cl)c4)c3c2)c2cn(C3CCN(C(C)(C)C)CC3)nn2)c1 [Example 267, (S)-6-(((1-(1-(tert-butyl)piperidin-4-yl)-1H-1,2,3-triazol-4-yl)(1-methyl-1H-imidazol-4-yl)methyl)amino)-8-chloro-4-((3-chloro-4-fluorophenyl)-amino)quinoline-3-carbonitrile]
21 | 826 | 9 | – | – | Cc1ccc([C@H](Nc2cc(Cl)c3ncc(C#N)c(Nc4ccc(F)c(Cl)c4)c3c2)c2c[nH]nn2)cn1 [Example 271, (S)-8-chloro-4-((3-chloro-4-fluorophenyl)amino)-6-(((6-methylpyridin-3-yl)(1H-1,2,3-triazol-4-yl)methyl)amino)quinoline-3-carbonitrile]
22 | 1560 | 51 | – | – | Cc1ccc([C@H](Nc2cc(Cl)c3ncc(C#N)c(Nc4ccc(F)c(Cl)c4)c3c2)c2cn(COC(=O)C(C)(C)C)nn2)cn1 [Example 273, (S)-(4-(((8-chloro-4-((3-chloro-4-fluorophenyl)amino)-3-cyanoquinolin-6-yl)amino)(6-methylpyridin-3-yl)methyl)-1H-1,2,3-triazol-1-yl)methyl pivalate]
23 | 2330 | 7 | – | – | N#Cc1cnc2c(Cl)cc(N[C@H](c3c[nH]nn3)c3csc4c3CCNC4)cc2c1Nc1ccc(F)c(Cl)c1 [Example 275, (S)-8-chloro-4-((3-chloro-4-fluorophenyl)amino)-6-(((4,5,6,7-tetrahydrothieno[2,3-c]pyridin-3-yl)(1H-1,2,3-triazol-4-yl)methyl)-amino)quinoline-3-carbonitrile]
24 | 789 | 6 | – | – | N#Cc1cnc2c(Cl)cc(N[C@@H](c3cscn3)c3c[nH]nn3)cc2c1Nc1ccc(F)c(Cl)c1 [Example 276, (S)-8-chloro-4-((3-chloro-4-fluorophenyl)amino)-6-((thiazol-4-yl(1H-1,2,3-triazol-4-yl)methyl)amino)quinoline-3-carbonitrile]
25 | – | – | 7 | 923 | N#Cc1cnc2c(Cl)cc(N[C@H](c3c[nH]nn3)c3cncs3)cc2c1Nc1ccc(F)c(Cl)c1 [Example 277, (R)-B-chloro-4-((3-chloro-4-fluorophenyl)amino)-6-((thiazol-5-yl(1H-1,2,3-triazol-4-yl)methyl)amino)quinoline-3-carbonitrile]
